The source of these data is US5786344A, “Camptothecin drug combinations and methods with reduced side effects” (priority 1995, dated 1998).

In one data set the test system is UDP-GT. Kind of data set: in vivo. The source says: (§1) Of these 2 types of inducers, phenobarbital has been used as an […] and a mildly sedative agent in humans. The inventors' objective here was to investigate the effect of phenobarbital administration on the glucuronidation of SN-38 in rats.
(§2) Animal protocol: Female Wistar rats (~200 gm) having a permanent catheter installed in the right jugular vein were obtained from Charles River Breeding Laboratories (Wilmington, Mass.).
(§3) Three rats were given a single intraperitoneal dose of 100 mg/kg phenobarbital in physiological saline followed by 0.1% (w/v) phenobarbital in drinking water for four days. […] After each sample the catheter was flushed with an equal volume of physiologic saline. The samples were immediately centrifuged at 2500×g for 10 minutes and the plasma obtained was stored at -70° C. until analysis.
(§4) Data Analysis: The plasma concentration-time profile of the control and pretreated groups of rats were analyzed using non-compartmental methods (PCNONLIN, SCI, Lexington, Ky.). […] The nonparametric Mann-Whitney test was used to test for differences in AUC between the control and pretreated groups.

Another data set in a line: in vivo. The note with it: rat, in vivo, iv, 20 mg/kg.
Description: as §1, §2, §3, §4

For `CCc1c2c(nc3ccc(OC(=O)N4CCC(N5CCCCC5)CC4)cc13)-c1cc3c(c(=O)n1C2)COC(=O)[C@]3(O)CC` [CPT-11, 7-ethyl-10-[4-(1-piperidino)-1-piperidino)carbonyloxycamptot hecin], the decrease in availability in the data set with UDP-GT (UDP-GT induction by phenobarbital) is on record as about 2 fold. Further, the “decline in AUC” value with UDP-GT (phenobarbital pretreated) stood at 60%. Besides, the “Change in AUC CPT-11” value with UDP-GT (phenobarbital pretreated vs control) is -60.29%. The AUC at 6 h in the data set “in vivo” (AUC CPT-11, control, CPT-11 20 mg/kg iv, n = 4, 0-6 h) amounted to 7700 ± 2670 ng·h/mL; in “in vivo” (AUC CPT-11, phenobarbital pretreated, CPT-11 20 mg/kg, n = 2), 3060 ng·h/mL.
